Reference: ChEMBL document CHEMBL1135451, “Electrochemical and peroxidase oxidation study of N'-hydroxyguanidine derivatives as NO donors” (Bioorg Med Chem Lett, 2002)

test: NO-releasing ability under the oxidation by horseradish peroxidase (HRP) in the presence of H2O2 for 20min, expressed as nitrite concentration; format: functional

| SMILES | Concentration |
| --- | --- |
| N=C(NO)Nc1ccccc1 | 28 µM |
| N/C(=N/Cc1ccc(Cl)cc1)NO | 151 µM |
| Cc1ccc(NC(=N)NO)cc1 | 6 µM |
| Cc1ccc(C/N=C(/N)NO)cc1 | 113 µM |
| N=C(NO)NCc1ccccc1 | 33 µM |
| N=C(NO)Nc1ccc(Cl)cc1 | 63 µM |
| COc1ccc(C/N=C(/N)NO)cc1 | 49 µM |
| N/C(=N/Cc1ccc([N+](=O)[O-])cc1)NO | 65 µM |
| COc1ccc(NC(=N)NO)cc1 | 24 µM |
| N/C(=N/c1ccc(Br)cc1)NO | 54 µM |
| N/C(=N/CCCC(N)C(=O)O)NO (configuration not stated) | 12 µM |
| N=C(N)NCCC[C@H](N)C(=O)O | 0 µM |
